Source: US10815183B2, “Substituted aromatic compounds and pharmaceutical uses thereof” (PROMETIC PHARMA SMT LIMITED, priority 2009, dated 2020)
Blank lines part the entries; values can stand above or below the compound they belong to.

What was measured:
bone marrow cells = assay: Chemoprotection studies: bone marrow and blood cell counts in cyclophosphamide immunosuppressed mice (hematopoiesis/erythropoiesis); format: in vivo, C57BL/6 mice; conditions: for In Vivo Results: effect on hematopoiesis/erythropoiesis: degree of activity compared to the activity of compound I; for Red Blood Cells (10^9) / Red Bone Marrow Cells (10^6): mice, cyclophosphamide 200 mg/kg iv day 0, compound oral pre-treatment day -3, -2, -1, sacrifice day +5
Procedure: Female C57BL/6 mice, 6 to 8 week old, were immunosuppressed by treatment with 200 mg/kg of cyclophosphamide administered intravenously at day 0. To examine the immunoprotective effect of compound I, mice were pre-treated orally at day −3, −2 and −1 with the compound. Mice were sacrificed at day +5 by cardiac puncture and cervical dislocation. Then, a gross pathological observation of the femurs (as a source of bone marrow cells) was recorded. After the sacrifice, tissues were crushed in PBS buffer and cells were counted on a hemacytometer.
Additional compounds related to compound I were also prepared and tested for biological activity.

PGE2 = assay: LPS-induced inflammation in the rat air-pouch model, PGE2 in pouch exudates by ELISA; format: in vivo, Lewis rats
Excerpt: LPS-induced inflammation in the rat air-pouch model is believed to mimic the pathological process occurring in joint diseases such as arthritis. This is because the connective tissues formed along the air pouch are similar to those found in chronic joint diseases. LPS-induced inflammation and chronic joint diseases share other features, including markedly elevated PGE2, neutrophil infiltration, cytokine formation, and tissue damage.
An air cavity was produced at day −6 by subcutaneous injection of 20 ml of sterile air into the […] area of the back of male Lewis rats (175-200 g). An additional 10 ml of air was injected into the cavity at day −3 to keep the space open. At day 0, compounds were administered intravenously and one hour later lipopolysaccharide (LPS: 2.5 ml, 2 μg/ml in PBS) was injected into the pouch to produce an inflammatory reaction. Two hours after treatment with LPS, animals were euthanized by CO2 asphyxiation and 5 ml of PBS/heparin (10 U/ml)/indomethacin (36 μg/ml) was injected into the pouch. The pouch fluid was collected and PGE2 was determined in the pouch exudates by ELISA.

[1] = Heart protection in 5/6 nephrectomized rats, blood pressure; format: in vivo; conditions: Nx rats (FIG. 7)
Excerpt: (§1) Male 6 week-old Wistar rats were subjected to ⅚ nephrectomy or sham operations. Under fluothane anesthesia, renal ablation was achieved by removing two-thirds of the left kidney followed by a right unilateral nephrectomy 7 days later. Sham rats underwent exposition of the kidneys and removal of the perirenal fat. Twenty-one days after the first operation, rats were randomized in the study by their reduced glomerular filtration rate (GFR) of creatinine indicating a dysfunction of the kidney. Animals that underwent the sham operation were given vehicle (saline) and were used as controls. Nx animals were divided in groups receiving the vehicle or Compound I. Saline or Compound I was given by gastric gavage once daily up to the sacrifice. GFR was measured every three weeks in order to assess the severity of this end-stage renal disease model. Rats were sacrificed at day 190.

[2] = Kidney protection in 5/6 nephrectomized (Nx) rat model, GFR (creatinine clearance); format: in vivo, Wistar rats
Excerpt: as §1

[3] = Doxorubicin-induced nephrotoxicity model: serum albumin, serum creatinine, histological kidney lesions; format: in vivo, C57Bl/6 mice; conditions: for serum creatinine increase induced by doxorubicin: mice (FIG. 9)
Procedure: (§2) C57Bl/6 mice (6-10 week-old) were treated with Compound I prophylacticly from day −3 to day 10 or treated therapeutically from day 1 to 10. Nephrotoxicity was induced by an intravenous injection of 10 mg/kg of doxorubicin at day 0. Serum albumin and creatinine were monitored at days 4, 7, 9 and 11.
Doxorubicin is well known to induce nephro- and cardiotoxicity. FIG. 10 represents the histological kidney lesions score as determined by histochemistry in the doxorubicin-induced nephrotoxicity model.
Doxorubicin induces early lesions primarily at the tubular region. Toxicity is further extended to the glomerulus (around day 11 post-doxorubicin). FIG. 11 represents the histological micrographs of doxorubicin-induced lesions in control and Compound I-treated (prophylactic treatment) mice. Doxorubicin induces kidney cell apoptosis, fibrosis, sclerosis and accumulation of proteins in affected tubular regions.

TGF-β = TGF-β mRNA expression in kidneys from doxorubicin-treated mice; format: in vivo, C57Bl/6 mice
Procedure: as §2
CTGF is also regulated by TGF-β. FIG. 13 illustrates the mRNA expression of TGF-β in kidneys. Doxorubicin increases by 73% the mRNA expression of TGF-β in kidneys. Pre-treatment with Compound I induces a 26% decrease of TGF-β expression.

CTGF = format: in vivo, C57Bl/6 mice; conditions: pre-treatment, doxorubicin-treated mice (FIG. 12)
Procedure: as §2

Structure (SMILES): CCCCCc1cccc(CCC(=O)[O-])c1.[Na+] [Compound V, Sodium Salt of 3-(3-pentylphenyl)propionic Acid]
In Vivo Results: effect on hematopoiesis/erythropoiesis (bone marrow cells): ++ (++ designates 40-70% of compound I activity)

Structure (SMILES): O=P1(N(CCCl)CCCl)NCCCO1 (stereo not drawn) [Cyclophosphamide, reference compound]
Red Blood Cells (10^9) (bone marrow cells): 5.7 10^9
Red Bone Marrow Cells (10^6) (bone marrow cells): 8.1 10^6

Structure (SMILES): CCCCCc1cccc(C(C)(C)C(=O)[O-])c1.[Na+] [Compound VI, Sodium Salt of 2-Methyl-2-(3-pentylphenyl)propionic Acid]
In Vivo Results: effect on hematopoiesis/erythropoiesis (bone marrow cells): ++ (++ designates 40-70% of compound I activity)

Structure (SMILES): CCC/C=C/c1cccc(CC(=O)[O-])c1.[Na+] [Compound II, Sodium Salt of E-(3-pent-1-enyl-phenyl)acetic Acid]
In Vivo Results: effect on hematopoiesis/erythropoiesis (bone marrow cells): +++ (+++ designates 70 to 100% of compound I activity)

Structure (SMILES): CCCCCc1cccc(CC(=O)[O-])c1.[Na+] [Compound I, Sodium Salt of 3-Pentylphenylacetic Acid]
inhibition of PGE2 compared with positive control indomethacin (PGE2; two hours after LPS): similar
inhibition of PGE2 (PGE2; two hours after administration of LPS (FIG. 3)): significant inhibition
blood pressure [1]: significant decrease
improvement of GFR compared to initial GFR (before treatment) at day 21 ([2]; Nx rats over treatment period, Nx control 50% deterioration (FIG. 6)): 50%
improvement of GFR (creatinine clearance) ([2]; Nx rats, gastric gavage once daily, day 190 (FIG. 5)): two-fold
histological kidney lesions at the tubular level induced by doxorubicin ([3]; prophylactic (pre-doxorubicin) and therapeutic (post-doxorubicin) treatments (FIG. 10)): reduce the kidney lesions
protection of the kidney against doxorubicin toxicity (histological micrographs) ([3]; prophylactic or therapeutic treatment (FIG. 11)): protects the kidney
serum albumin decrease induced by doxorubicin ([3]; prophylactic treatment day -3 to day 10, oral, mice (FIG. 8)): inhibits the decrease
serum creatinine increase induced by doxorubicin ([3]; prophylactic treatment day -3 to day 10, oral): inhibits the increase
serum albumin level induced by doxorubicin ([3]; therapeutic treatment day 1 to 10, oral, mice (FIG. 8)): no effect
serum creatinine increase induced by doxorubicin ([3]; therapeutic treatment day 1 to 10, oral): inhibits the increase
circulating red blood cells (in words) (bone marrow cells; cyclophosphamide immunosuppressed mice): increases
In Vivo Results: effect on hematopoiesis/erythropoiesis (bone marrow cells): +++ (+++ designates 70 to 100% of compound I activity)
Red Blood Cells (10^9) (bone marrow cells): 7.0 10^9
Red Bone Marrow Cells (10^6) (bone marrow cells): 11.5 10^6
red bone marrow cell count (in words) (bone marrow cells; oral pre-treatment, cyclophosphamide immunosuppressed mice): increase
white bone marrow cell count (bone marrow cells; oral pre-treatment, cyclophosphamide immunosuppressed mice (FIG. 2)): increase
total bone marrow cell count (bone marrow cells; oral pre-treatment, cyclophosphamide treated mice (FIG. 1)): significant increase
decrease of TGF-β expression in kidneys (TGF-β; pre-treatment, doxorubicin-treated mice (FIG. 13)): 26%
CTGF expression in kidneys (CTGF): significant decrease

Structure (SMILES): CCCCc1cccc(CCC(=O)[O-])c1.[Na+] [Compound IX, Sodium Salt of 3-(3-butylphenyl)propionic Acid]
In Vivo Results: effect on hematopoiesis/erythropoiesis (bone marrow cells): ++ (++ designates 40-70% of compound I activity)

Structure (SMILES): CCCCCc1cccc(C(CO)C(=O)[O-])c1.[Na+] (stereo not drawn) [Compound VII, Sodium Salt of 3-Hydroxy-2-(3-pentyl-phenyl)propionic Acid]
In Vivo Results: effect on hematopoiesis/erythropoiesis (bone marrow cells): +++ (+++ designates 70 to 100% of compound I activity)

Structure (SMILES): CCCCCc1cc(O)cc(CC(=O)[O-])c1.[Na+] [Compound XI, Sodium Salt of [3-Hydroxy-5-pentylphenyl]acetic acid]
In Vivo Results: effect on hematopoiesis/erythropoiesis (bone marrow cells): ++++ (++++ designates greater activity than compound I)

Structure (SMILES): CCCC/C=C/c1cccc(CC(=O)[O-])c1.[Na+] [XV]
In Vivo Results: effect on hematopoiesis/erythropoiesis (bone marrow cells): ++ (++ designates 40-70% of compound I activity)

Structure (SMILES): CCCCCc1cc(CCC(=O)[O-])ccc1F.[Na+] [Compound IV, Sodium Salt of 3-(4-fluoro-3-pentylphenyl)propionic Acid]
In Vivo Results: effect on hematopoiesis/erythropoiesis (bone marrow cells): +++ (+++ designates 70 to 100% of compound I activity)

Structure (SMILES): CCCCCc1ccc(C(=O)[O-])cc1.[Na+] [Compound XII, Sodium Salt of 4-Pentylbenzoic Acid]
In Vivo Results: effect on hematopoiesis/erythropoiesis (bone marrow cells): ++ (++ designates 40-70% of compound I activity)

Structure (SMILES): C/C=C\CCc1cccc(CC(=O)[O-])c1.[Na+] [Compound X, Sodium Salt of E/Z-(3-Pent-3-enylphenyl)acetic Acid]
In Vivo Results: effect on hematopoiesis/erythropoiesis (bone marrow cells): +++ (+++ designates 70 to 100% of compound I activity)

Structure (SMILES): CCCCCc1cccc(C(C)C(=O)[O-])c1.[Na+] (stereo not drawn) [Compound VIII, Sodium Salt of 2-(3-pentylphenyl)propionic Acid]
In Vivo Results: effect on hematopoiesis/erythropoiesis (bone marrow cells): ++ (++ designates 40-70% of compound I activity)

Structure (SMILES): CCCCCc1ccc(O)c(CC(=O)[O-])c1.[Na+] [Compound III, Sodium salt of (2-hydroxy-5-pentylphenyl)acetic Acid]
In Vivo Results: effect on hematopoiesis/erythropoiesis (bone marrow cells): + (+ designates 5-40% of compound I activity)

Structure (SMILES): CCCCCc1cccc(CC(=O)[O-])n1.[Na+] [XVI]
In Vivo Results: effect on hematopoiesis/erythropoiesis (bone marrow cells): ++ (++ designates 40-70% of compound I activity)

Structure (SMILES): CCCCCCc1cccc(C(=O)[O-])c1.[Na+] [Compound XIII, Sodium Salt of 3-Hexylbenzoic Acid]
In Vivo Results: effect on hematopoiesis/erythropoiesis (bone marrow cells): +++ (+++ designates 70 to 100% of compound I activity)

Structure (SMILES): CCCCc1ccc2c(c1)CC(C(=O)[O-])C2.[Na+] (stereo not drawn) [Compound XIV, Sodium Salt of 5-Butylindan-2-carboxylc Acid]
In Vivo Results: effect on hematopoiesis/erythropoiesis (bone marrow cells): ++ (++ designates 40-70% of compound I activity)

increase of mRNA expression of TGF-β in kidneys (TGF-β; doxorubicin 10 mg/kg iv, mice): 73%
Structure (SMILES): COc1cccc2c1C(=O)c1c(O)c3c(c(O)c1C2=O)C[C@@](O)(C(=O)CO)C[C@@H]3O[C@H]1C[C@H](N)[C@H](O)[C@H](C)O1 [Doxorubicin, reference compound]
histological kidney lesions induced ([3]; doxorubicin 10 mg/kg iv day 0, mice, day 7 and 11): significant kidney lesions
